Reference: ChEMBL document CHEMBL1151449, “In vitro activity of DC-159a, a new broad-spectrum fluoroquinolone, compared with that of other agents against drug-susceptible and -resistant pneumococci” (2008)
≈ marks a conversion by molar mass, not a printed value.

Experiments:
Type in all cases: functional
Streptococcus pneumoniae [1] = assay: (§1) Antibacterial activity against macrolide-, quinolone-susceptible and penicillin-intermediate Streptococcus pneumoniae HMC 100 harboring S79Y mutation in quinolone-resistant determining regions of ParC gene after 34 passages with gemifloxacin measured after 10 daily antibiotic-free subculturing by multi-step resistance selection technique
Streptococcus pneumoniae [2] = assay: Antibacterial activity against macrolide-, quinolone-susceptible and penicillin-intermediate Streptococcus pneumoniae HMC 99 after 50 passages by broth microdilution method
Streptococcus pneumoniae [3] = assay: Antibacterial activity against penicillin-, macrolide- and quinolone-susceptible Streptococcus pneumoniae HMC 63 after 50 passages by broth microdilution method
Streptococcus pneumoniae [4] = assay: as §1, with “99” for “100”, “harboring S81Y and” for “harboring”, “of GyrA and” for “of”, “genes respectively” for “gene”, “41” for “34”, “moxifloxacin” for “gemifloxacin”
Streptococcus pneumoniae [5] = assay: (§2) Antibacterial activity against penicillin-resistant and quinolone-susceptible Streptococcus pneumoniae HMC 3583 expressing mefA and harboring S81F mutation in quinolone-resistant determining regions of GyrA gene, D83N mutation in QRDR of ParC gene and I460V mutation in QRDR of ParE gene after 44 passages with levofloxacin measured after 10 daily antibiotic-free subculturing by multi-step resistance selection technique
Streptococcus pneumoniae [6] = assay: as §1, with “S81Y” for “S79Y”, “GyrA” for “ParC”, “22” for “34”, “moxifloxacin” for “gemifloxacin”
Streptococcus pneumoniae [7] = assay: Antibacterial activity against penicillin-, macrolide-susceptible and quinolone-resistant Streptococcus pneumoniae HMC 1074 harboring S81F, E85K mutation in quinolone-resistant determining regions of GyrA gene, S79F mutation in QRDR of ParC gene and I460V mutation in QRDR of ParE gene after 27 passages with gemifloxacin measured after 10 daily antibiotic-free subculturing by multi-step resistance selection technique
Streptococcus pneumoniae [8] = assay: Antibacterial activity against penicillin-resistant and quinolone-susceptible Streptococcus pneumoniae HMC 3583 expressing mefA and harboring I460V mutation in QRDR of ParE gene after 41 passages with gemifloxacin measured after 10 daily antibiotic-free subculturing by multi-step resistance selection technique
Streptococcus pneumoniae [9] = assay: Antibacterial activity against quinolone-susceptible and penicillin-intermediate Streptococcus pneumoniae HMC 5048 expressing mefA after 50 passages by broth microdilution method
Streptococcus pneumoniae [10] = assay: Antibacterial activity against penicillin-, macrolide- and quinolone-susceptible Streptococcus pneumoniae HMC 63 by broth microdilution method
Streptococcus pneumoniae [11] = assay: as §1, with “harboring S81Y and” for “harboring”, “of GyrA and” for “of”, “genes respectively” for “gene”, “42” for “34”, “levofloxacin” for “gemifloxacin”
Streptococcus pneumoniae [12] = assay: Antibacterial activity against quinolone-susceptible and penicillin-intermediate Streptococcus pneumoniae HMC 5048 expressing mefA by broth microdilution method
Streptococcus pneumoniae [13] = assay: Antibacterial activity against quinolone-resistant Streptococcus pneumoniae […] by agar dilution method
Streptococcus pneumoniae [14] = assay: (§3) Antibacterial activity against penicillin-susceptible, quinolone-resistant Streptococcus pneumoniae 1072 expressing ermB and harboring S81F mutation in quinolone-resistant determining regions of GyrA gene, S79Y mutation in QRDR of ParC gene and I460V mutation in QRDR of ParE gene by broth microdilution method
Streptococcus pneumoniae [15] = assay: as §2, with “49” for “44”, “DC-159a” for “levofloxacin”
Streptococcus pneumoniae [16] = assay: Antibacterial activity against penicillin-resistant and quinolone-susceptible Streptococcus pneumoniae HMC 228 expressing ermB by broth microdilution method
Streptococcus pneumoniae [17] = assay: Antibacterial activity against azithromycin-susceptible Streptococcus pneumoniae ATCC 49619 by agar dilution method
Streptococcus pneumoniae [18] = assay: Antibacterial activity against penicillin- and quinolone-susceptible Streptococcus pneumoniae HMC 5055 expressing mefA by broth microdilution method
Streptococcus pneumoniae [19] = assay: Antibacterial activity against macrolide-, quinolone-susceptible and penicillin-intermediate Streptococcus pneumoniae HMC 100 after 50 passages by broth microdilution method
Streptococcus pneumoniae [20] = assay: Antibacterial activity against penicillin-intermediate Streptococcus pneumoniae […] by agar dilution method
Streptococcus pneumoniae [21] = assay: Antibacterial activity against penicillin- and quinolone-susceptible Streptococcus pneumoniae HMC 5055 expressing mefA after 50 passages by broth microdilution method
Streptococcus pneumoniae [22] = assay: Antibacterial activity against macrolide-, quinolone-susceptible and penicillin-intermediate Streptococcus pneumoniae HMC 100 by broth microdilution method
Streptococcus pneumoniae [23] = assay: Antibacterial activity against quinolone-susceptible and penicillin-intermediate Streptococcus pneumoniae HMC 441 expressing ermB by broth microdilution method
Streptococcus pneumoniae [24] = assay: as §2, with “228” for “3583”, “ermB” for “mefA”, “S79Y” for “D83N”, “38” for “44”, “gatifloxacin” for “levofloxacin”
Streptococcus pneumoniae [25] = assay: Antibacterial activity against penicillin-resistant and quinolone-susceptible Streptococcus pneumoniae HMC 3583 expressing mefA by broth microdilution method
Streptococcus pneumoniae [26] = assay: Antibacterial activity against azithromycin-resistant Streptococcus pneumoniae […] by agar dilution method
Streptococcus pneumoniae [27] = assay: Antibacterial activity against quinolone-susceptible Streptococcus pneumoniae ATCC 49619 by agar dilution method
Streptococcus pneumoniae [28] = assay: as §3, with “penicillin-, macrolide-susceptible and” for “penicillin-susceptible,”, “HMC 1074” for “1072 expressing ermB and”, “S79F” for “S79Y”
Streptococcus pneumoniae [29] = assay: as §2, with “GyrA” for “GyrA gene, D83N mutation in QRDR of ParC”, “I460V, D435N” for “I460V”, “46” for “44”, “gatifloxacin” for “levofloxacin”
Streptococcus pneumoniae [30] = assay: Antibacterial activity against penicillin-, quinolone-resistant and macrolide-susceptible Streptococcus pneumoniae HMC 1058 harboring S79F, K137N mutation in quinolone-resistant determining regions of ParC gene and 460V mutation in QRDR of ParE gene by broth microdilution method
Streptococcus pneumoniae [31] = assay: as §2, with “228” for “3583”, “ermB” for “mefA”, “S79Y” for “D83N”, “36” for “44”, “moxifloxacin” for “levofloxacin”
Streptococcus pneumoniae [32] = assay: Antibacterial activity against penicillin-, macrolide-susceptible and quinolone-resistant Streptococcus pneumoniae HMC 1074 harboring S81F mutation in quinolone-resistant determining regions of GyrA gene, S79F mutation in QRDR of ParC gene and I460V mutation in QRDR of ParE gene after 50 passages by broth microdilution method
Streptococcus pneumoniae [33] = assay: Antibacterial activity against penicillin-resistant and quinolone-susceptible Streptococcus pneumoniae HMC 3583 expressing mefA after 50 passages by broth microdilution method
Streptococcus pneumoniae [34] = assay: Antibacterial activity against macrolide-, quinolone-susceptible and penicillin-intermediate Streptococcus pneumoniae HMC 99 by broth microdilution method
Streptococcus pneumoniae [35] = assay: as §2, with “228” for “3583”, “ermB” for “mefA”, “28” for “44”, “DC-159a” for “levofloxacin”
Streptococcus pneumoniae [36] = assay: Antibacterial activity against penicillin-, macrolide- and quinolone-susceptible Streptococcus pneumoniae HMC 63 harboring S81F mutation in quinolone-resistant determining regions of GyrA gene, D83Y mutation in QRDR of ParC gene and I460V mutation in QRDR of ParE gene after 34 passages with gemifloxacin measured after 10 daily antibiotic-free subculturing by multi-step resistance selection technique
Streptococcus pneumoniae [37] = assay: Antibacterial activity against penicillin-, quinolone-resistant Streptococcus pneumoniae HMC 1541 harboring mutation in L4 protein by broth microdilution method
Streptococcus pneumoniae [38] = assay: Antibacterial activity against penicillin-resistant Streptococcus pneumoniae […] by agar dilution method
Streptococcus pneumoniae [39] = assay: Antibacterial activity against penicillin-susceptible Streptococcus pneumoniae ATCC 49619 by agar dilution method

`CC[C@H]1OC(=O)[C@H](C)[C@@H](O[C@H]2C[C@@](C)(OC)[C@@H](O)[C@H](C)O2)[C@H](C)[C@@H](O[C@@H]2O[C@H](C)C[C@H](N(C)C)[C@H]2O)[C@](C)(O)C[C@@H](C)CN(C)[C@H](C)[C@@H](O)[C@]1(C)O` [AZITHROMYCIN] gave an MIC (Streptococcus pneumoniae [1]) of 0.06 µg/mL (≈ 0.0801 µM), an MIC (Streptococcus pneumoniae [2]) of 0.06 µg/mL (≈ 0.0801 µM) and an MIC (Streptococcus pneumoniae [3]) of 0.06 µg/mL (≈ 0.0801 µM). For the same molecule, the MIC (Streptococcus pneumoniae [4]) was 0.016 µg/mL (≈ 0.0214 µM), the MIC (Streptococcus pneumoniae [5]) was 2 µg/mL (≈ 2.67 µM) and the MIC (Streptococcus pneumoniae [6]) was 0.03 µg/mL (≈ 0.0401 µM). The MIC (Streptococcus pneumoniae [7]) was 0.016 µg/mL (≈ 0.0214 µM), the MIC (Streptococcus pneumoniae [8]) was 0.25 µg/mL (≈ 0.334 µM) and the MIC (Streptococcus pneumoniae [9]) was 8 µg/mL (≈ 10.7 µM). The MIC (Streptococcus pneumoniae [10]) was 0.016 µg/mL (≈ 0.0214 µM), the MIC (Streptococcus pneumoniae [11]) was 0.03 µg/mL (≈ 0.0401 µM) and the MIC (Streptococcus pneumoniae [12]) was 4 µg/mL (≈ 5.34 µM). The MIC50 (Streptococcus pneumoniae [13]) was 0.06 µg/mL (≈ 0.0801 µM), the MIC (Streptococcus pneumoniae [14]) was over 64 µg/mL and the MIC (Streptococcus pneumoniae [15]) was 0.25 µg/mL (≈ 0.334 µM). It also gave an MIC (Streptococcus pneumoniae [16]) of over 64 µg/mL, an MIC50 (Streptococcus pneumoniae [17]) of 0.12 µg/mL (≈ 0.16 µM) and an MIC90 (Streptococcus pneumoniae [17]) of 0.12 µg/mL (≈ 0.16 µM). For the same molecule, the MIC (Streptococcus pneumoniae [18]) was 2 µg/mL (≈ 2.67 µM), the MIC (Streptococcus pneumoniae [19]) was 0.03 µg/mL (≈ 0.0401 µM) and the MIC50 (Streptococcus pneumoniae [20]) was 0.12 µg/mL (≈ 0.16 µM). It also gave an MIC90 (Streptococcus pneumoniae [20]) of over 64 µg/mL, an MIC (Streptococcus pneumoniae [21]) of 8 µg/mL (≈ 10.7 µM) and an MIC (Streptococcus pneumoniae [22]) of 0.03 µg/mL (≈ 0.0401 µM). The MIC (Streptococcus pneumoniae [23]) was over 64 µg/mL, the MIC (Streptococcus pneumoniae [24]) was 2 µg/mL (≈ 2.67 µM) and the MIC (Streptococcus pneumoniae [25]) was 2 µg/mL (≈ 2.67 µM). It also gave an MIC50 (Streptococcus pneumoniae [26]) of over 64 µg/mL, an MIC50 (Streptococcus pneumoniae [27]) of 1 µg/mL (≈ 1.34 µM) and an MIC90 (Streptococcus pneumoniae [27]) of over 64 µg/mL. For the same molecule, the MIC (Streptococcus pneumoniae [28]) was 0.03 µg/mL (≈ 0.0401 µM), the MIC (Streptococcus pneumoniae [29]) was 0.25 µg/mL (≈ 0.334 µM) and the MIC (Streptococcus pneumoniae [30]) was 0.06 µg/mL (≈ 0.0801 µM). It also gave an MIC (Streptococcus pneumoniae [31]) of over 64 µg/mL, an MIC (Streptococcus pneumoniae [32]) of 0.03 µg/mL (≈ 0.0401 µM) and an MIC (Streptococcus pneumoniae [33]) of 4 µg/mL (≈ 5.34 µM). It also gave an MIC (Streptococcus pneumoniae [34]) of 0.016 µg/mL (≈ 0.0214 µM), an MIC (Streptococcus pneumoniae [35]) of over 64 µg/mL and an MIC (Streptococcus pneumoniae [36]) of 0.03 µg/mL (≈ 0.0401 µM). For the same molecule, the MIC (Streptococcus pneumoniae [37]) was over 64 µg/mL, the MIC50 (Streptococcus pneumoniae [38]) was 2 µg/mL (≈ 2.67 µM) and the MIC50 (Streptococcus pneumoniae [39]) was 0.12 µg/mL (≈ 0.16 µM). The MIC90 (Streptococcus pneumoniae [39]) was over 64 µg/mL.
